Test results reported in ChEMBL document CHEMBL5620382, “Fluoroindole chalcone analogues targeting the colchicine binding site of tubulin for colorectal oncotherapy” (Eur J Med Chem, 2023).
Values belong to the compound of their own block, whether it stands above or below them. Calls of active or inactive are those of the source. No cut-off for these calls is given here.

What was measured:
HCT-116 [1] = experiment: Antiproliferative activity against human HCT116 cells assessed as inhibition of proliferation measured after 24 hrs by CCK-8 assay; assay type: functional, cell-based; details: HCT-116, 24 h
HCT-116 [2] = experiment: Cytotoxicity against human HCT-116 cells assessed as growth inhibition measured after 48 hrs by CCK-8 assay; assay type: functional
HCT-116 [3] = experiment: Anti-tumor activity against human HCT-116 cells xenografted in BALB/c mouse assessed as inhibition of tumor growth at 7 mg/kg, ip thrice a week for three weeks; assay type: functional, organism-based; details: time 3.0 weeks

Structure (SMILES): COc1ccc(/C=C\c2cc(OC)c(OC)c(OC)c2)cc1O [COMBRETASTATIN A4]
IC50 (HCT-116 [1]): 15.8 nM

Structure (SMILES): O=C(/C=C/c1c[nH]c2ccccc12)c1ccccc1
GI50 (HCT-116 [2]): > 10000 nM

Structure (SMILES): COc1cc(C(=O)/C(C)=C/c2c[nH]c3ccc(Br)cc23)cc(OC)c1OC
GI50 (HCT-116 [2]): > 8000 nM

Structure (SMILES): COc1ccc(C(=O)/C(C)=C/c2c[nH]c3ccccc23)cc1OC
GI50 (HCT-116 [2]): 74 nM

Structure (SMILES): COc1cc(C(=O)/C(C)=C/c2c[nH]c3ccc([N+](=O)[O-])cc23)cc(OC)c1OC
GI50 (HCT-116 [2]): 74 nM

Structure (SMILES): COc1cc(C(=O)/C(C)=C/c2c[nH]c3ccc(C)cc23)cc(OC)c1OC
GI50 (HCT-116 [2]): 71 nM

Structure (SMILES): COc1cc(C(=O)/C(C)=C/c2c[nH]c3cc(N)ccc23)cc(OC)c1OC
GI50 (HCT-116 [2]): 69 nM

Structure (SMILES): COc1cc(C(=O)/C(C)=C/c2c[nH]c3ccccc23)cc(OC)c1OC
GI50 (HCT-116 [2]): 0.99 nM

Structure (SMILES): COc1cc(C(=O)/C(C)=C/c2c[nH]c3cccc(C)c23)cc(OC)c1OC
GI50 (HCT-116 [2]): 602 nM

Structure (SMILES): C/C(=C\c1c[nH]c2ccccc12)C(=O)c1ccccc1
GI50 (HCT-116 [2]): > 15000 nM

Structure (SMILES): COc1cc(C(=O)/C(C)=C/c2c[nH]c3ncccc23)cc(OC)c1OC
GI50 (HCT-116 [2]): 49 nM

Structure (SMILES): COc1cc(C(=O)/C(C)=C/c2c[nH]c3cc(C)ccc23)cc(OC)c1OC
GI50 (HCT-116 [2]): 46 nM

Structure (SMILES): COc1cc(C(=O)/C(C)=C/c2c[nH]c3cc([N+](=O)[O-])ccc23)cc(OC)c1OC
GI50 (HCT-116 [2]): 76 nM

Structure (SMILES): COc1cc(C(=O)/C(C)=C/c2c[nH]c3ccccc23)cc2c1OCO2
GI50 (HCT-116 [2]): 61 nM

IC50 (HCT-116 [1]): 24 nM
Structure (SMILES): CC(=O)O[C@H]1C(=O)[C@@]2(C)[C@H]([C@H](OC(=O)c3ccccc3)[C@]3(O)C[C@H](OC(=O)[C@H](O)[C@@H](NC(=O)c4ccccc4)c4ccccc4)C(C)=C1C3(C)C)[C@]1(OC(C)=O)CO[C@@H]1C[C@@H]2O [PACLITAXEL]
Activity (HCT-116 [3]): Active

Structure (SMILES): COc1cccc2c1CC/C(=C\c1c[nH]c3ccccc13)C2=O
GI50 (HCT-116 [2]): > 10000 nM

Structure (SMILES): COc1cc(C(=O)/C(C)=C/c2csc3ccccc23)cc(OC)c1OC
GI50 (HCT-116 [2]): 200 nM

Structure (SMILES): COC(=O)c1ccc2c(/C=C(\C)C(=O)c3cc(OC)c(OC)c(OC)c3)c[nH]c2c1
GI50 (HCT-116 [2]): 536 nM

Structure (SMILES): COc1cc(C(=O)/C(C)=C/c2cnn3ccccc23)cc(OC)c1OC
GI50 (HCT-116 [2]): 79 nM

Structure (SMILES): COc1cncc(C(=O)/C(C)=C/c2c[nH]c3ccccc23)c1
GI50 (HCT-116 [2]): 240 nM

Structure (SMILES): COc1ccc2c(/C=C(\C)C(=O)c3cc(OC)c(OC)c(OC)c3)c[nH]c2c1
GI50 (HCT-116 [2]): 74 nM

Structure (SMILES): COc1cccc(C(=O)/C(C)=C/c2c[nH]c3ccccc23)c1
GI50 (HCT-116 [2]): 348 nM

Structure (SMILES): COc1cc(C(=O)/C(C)=C/c2c[nH]c3cc(C(=O)O)ccc23)cc(OC)c1OC
GI50 (HCT-116 [2]): > 10000 nM

Structure (SMILES): COc1cc(C(=O)/C(C)=C/c2c[nH]c3ccc(F)cc23)cc(OC)c1OC
GI50 (HCT-116 [2]): 29 nM

Structure (SMILES): COc1cc(C(=O)/C(C)=C/c2c[nH]c3ccncc23)cc(OC)c1OC
GI50 (HCT-116 [2]): 1080 nM

Structure (SMILES): COc1cc(C(=O)/C(C)=C/c2c[nH]c3c(C)cccc23)cc(OC)c1OC
GI50 (HCT-116 [2]): 107 nM

Structure (SMILES): COc1cc(C(=O)/C(C)=C/c2c[nH]c3cnccc23)cc(OC)c1OC
GI50 (HCT-116 [2]): 821 nM

Structure (SMILES): CC/C(=C\c1c[nH]c2ccccc12)C(=O)c1cc(OC)c(OC)c(OC)c1
GI50 (HCT-116 [2]): 43 nM

Structure (SMILES): COc1cc(C(=O)/C(C)=C/c2c[nH]c3c([N+](=O)[O-])cccc23)cc(OC)c1OC
GI50 (HCT-116 [2]): 91 nM

Structure (SMILES): COc1cc(C(=O)/C(C)=C/c2cnc3ccccn23)cc(OC)c1OC
GI50 (HCT-116 [2]): 71 nM

Structure (SMILES): COc1cc(C(=O)/C(C)=C/c2c[nH]c3ccc(Cl)cc23)cc(OC)c1OC
GI50 (HCT-116 [2]): 70 nM

Structure (SMILES): COc1cc(C(=O)/C(C)=C/c2c[nH]c3cccnc23)cc(OC)c1OC
GI50 (HCT-116 [2]): 59 nM

Structure (SMILES): COc1cc(OC)cc(C(=O)/C(C)=C/c2c[nH]c3ccccc23)c1
GI50 (HCT-116 [2]): 65 nM
